Test results: ChEMBL document CHEMBL5291721, “A preclinical secondary pharmacology resource illuminates target-adverse drug reaction associations of marketed drugs” (Nat Commun, 2023)

Legend:
Histamine H3 receptor = Histamine H3 receptor (Homo sapiens, UniProt Q9Y5N1)
Androgen receptor = target: T1, Androgen receptor (Homo sapiens, UniProt P10275)
T1 sequence (P10275 whole entry): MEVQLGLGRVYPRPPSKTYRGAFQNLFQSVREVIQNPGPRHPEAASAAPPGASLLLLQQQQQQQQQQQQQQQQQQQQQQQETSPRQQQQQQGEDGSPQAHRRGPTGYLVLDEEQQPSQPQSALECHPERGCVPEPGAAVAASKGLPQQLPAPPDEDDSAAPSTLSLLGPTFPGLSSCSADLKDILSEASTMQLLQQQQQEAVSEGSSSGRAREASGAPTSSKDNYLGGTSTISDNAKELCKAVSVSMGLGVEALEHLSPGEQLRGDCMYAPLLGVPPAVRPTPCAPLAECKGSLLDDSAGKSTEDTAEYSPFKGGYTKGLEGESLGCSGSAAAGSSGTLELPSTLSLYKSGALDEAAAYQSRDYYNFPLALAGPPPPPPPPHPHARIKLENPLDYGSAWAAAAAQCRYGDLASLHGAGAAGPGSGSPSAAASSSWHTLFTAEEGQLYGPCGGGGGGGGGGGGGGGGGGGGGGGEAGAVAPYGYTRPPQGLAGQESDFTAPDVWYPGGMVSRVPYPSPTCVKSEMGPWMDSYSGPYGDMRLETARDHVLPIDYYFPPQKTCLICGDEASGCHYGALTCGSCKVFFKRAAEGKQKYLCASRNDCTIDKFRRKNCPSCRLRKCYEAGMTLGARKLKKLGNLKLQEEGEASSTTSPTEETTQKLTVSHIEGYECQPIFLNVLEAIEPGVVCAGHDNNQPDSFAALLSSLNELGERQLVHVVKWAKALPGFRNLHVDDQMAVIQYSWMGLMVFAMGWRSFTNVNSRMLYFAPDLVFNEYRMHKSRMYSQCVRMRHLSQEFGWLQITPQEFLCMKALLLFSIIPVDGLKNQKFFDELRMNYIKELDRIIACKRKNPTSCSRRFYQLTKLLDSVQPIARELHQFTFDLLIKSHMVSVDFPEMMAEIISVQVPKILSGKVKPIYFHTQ

[1] = target: T2, Alpha-2A adrenergic receptor (Homo sapiens, UniProt P08913)
T2 sequence (P08913 whole entry): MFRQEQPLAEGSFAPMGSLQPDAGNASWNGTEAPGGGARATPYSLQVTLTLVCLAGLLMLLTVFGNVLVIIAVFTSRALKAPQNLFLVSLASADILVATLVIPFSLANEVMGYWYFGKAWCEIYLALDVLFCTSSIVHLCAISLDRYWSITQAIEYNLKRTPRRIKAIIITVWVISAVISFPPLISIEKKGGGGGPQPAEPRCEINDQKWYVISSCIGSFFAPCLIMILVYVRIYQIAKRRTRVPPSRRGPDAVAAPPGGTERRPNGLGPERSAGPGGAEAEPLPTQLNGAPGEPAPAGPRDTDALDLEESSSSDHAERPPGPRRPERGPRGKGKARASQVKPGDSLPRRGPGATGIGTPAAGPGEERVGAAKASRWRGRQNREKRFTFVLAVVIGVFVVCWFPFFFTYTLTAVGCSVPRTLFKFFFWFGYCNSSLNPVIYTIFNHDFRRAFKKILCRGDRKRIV

D(1A) dopamine receptor = D(1A) dopamine receptor (Homo sapiens, UniProt P21728)
[2] = target: Gamma-aminobutyric acid receptor subunit alpha-1 (Rattus norvegicus, UniProt P62813)
[3] = target: T3, Muscarinic acetylcholine receptor M1 (Homo sapiens, UniProt P11229); type: functional, cell-based
T3 sequence (P11229 whole entry): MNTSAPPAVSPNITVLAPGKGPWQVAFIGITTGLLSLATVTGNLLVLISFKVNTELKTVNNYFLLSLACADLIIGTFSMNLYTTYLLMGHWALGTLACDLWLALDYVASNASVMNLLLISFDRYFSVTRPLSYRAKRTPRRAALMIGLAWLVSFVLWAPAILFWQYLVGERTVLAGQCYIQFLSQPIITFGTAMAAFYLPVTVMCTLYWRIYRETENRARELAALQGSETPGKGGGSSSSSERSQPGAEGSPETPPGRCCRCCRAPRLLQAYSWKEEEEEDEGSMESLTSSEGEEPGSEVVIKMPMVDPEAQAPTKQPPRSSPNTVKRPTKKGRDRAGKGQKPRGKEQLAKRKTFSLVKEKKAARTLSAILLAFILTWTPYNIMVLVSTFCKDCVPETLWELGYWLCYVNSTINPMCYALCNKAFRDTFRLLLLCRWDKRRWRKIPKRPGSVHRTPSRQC

[4] = target: T4, Alpha-1A adrenergic receptor (Homo sapiens, UniProt P35348); type: functional, cell-based
T4 sequence (P35348 whole entry): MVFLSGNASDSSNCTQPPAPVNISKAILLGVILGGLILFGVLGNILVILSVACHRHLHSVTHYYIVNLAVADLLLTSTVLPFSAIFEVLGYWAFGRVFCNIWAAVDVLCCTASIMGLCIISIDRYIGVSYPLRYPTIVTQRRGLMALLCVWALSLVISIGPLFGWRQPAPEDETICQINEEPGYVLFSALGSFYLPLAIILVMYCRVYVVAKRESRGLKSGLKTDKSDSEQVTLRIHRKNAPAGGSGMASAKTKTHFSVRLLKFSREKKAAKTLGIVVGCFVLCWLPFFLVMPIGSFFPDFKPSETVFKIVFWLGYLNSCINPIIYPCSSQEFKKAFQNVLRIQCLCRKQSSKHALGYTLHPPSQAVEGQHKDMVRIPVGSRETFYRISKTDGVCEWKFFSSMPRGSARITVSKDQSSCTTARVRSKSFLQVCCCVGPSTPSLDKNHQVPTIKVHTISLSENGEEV

[5] = target: T3, Muscarinic acetylcholine receptor M1; type: functional, cell-based; remark: listed apart in the source
[6] = target: Gamma-aminobutyric acid receptor subunit alpha-1/alpha-2/beta-2/gamma-2 (Homo sapiens, UniProt P14867+P18507+P47869+P47870); type: protein-complex assay
Also: assay procedure not described here.

Sequence of Gamma-aminobutyric acid receptor subunit alpha-1 (P62813 whole entry): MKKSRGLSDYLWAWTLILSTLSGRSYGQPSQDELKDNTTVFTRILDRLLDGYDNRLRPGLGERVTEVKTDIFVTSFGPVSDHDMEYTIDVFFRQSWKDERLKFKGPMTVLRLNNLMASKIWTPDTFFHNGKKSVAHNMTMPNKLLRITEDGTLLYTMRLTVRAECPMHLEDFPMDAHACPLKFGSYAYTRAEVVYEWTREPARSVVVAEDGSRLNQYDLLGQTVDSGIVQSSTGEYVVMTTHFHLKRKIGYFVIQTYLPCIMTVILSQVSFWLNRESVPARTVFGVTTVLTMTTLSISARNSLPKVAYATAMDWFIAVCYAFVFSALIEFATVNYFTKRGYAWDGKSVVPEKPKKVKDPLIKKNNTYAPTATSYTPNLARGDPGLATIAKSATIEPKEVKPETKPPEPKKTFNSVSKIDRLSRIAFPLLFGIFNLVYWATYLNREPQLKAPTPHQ
Sequence of Histamine H3 receptor (Q9Y5N1 whole entry): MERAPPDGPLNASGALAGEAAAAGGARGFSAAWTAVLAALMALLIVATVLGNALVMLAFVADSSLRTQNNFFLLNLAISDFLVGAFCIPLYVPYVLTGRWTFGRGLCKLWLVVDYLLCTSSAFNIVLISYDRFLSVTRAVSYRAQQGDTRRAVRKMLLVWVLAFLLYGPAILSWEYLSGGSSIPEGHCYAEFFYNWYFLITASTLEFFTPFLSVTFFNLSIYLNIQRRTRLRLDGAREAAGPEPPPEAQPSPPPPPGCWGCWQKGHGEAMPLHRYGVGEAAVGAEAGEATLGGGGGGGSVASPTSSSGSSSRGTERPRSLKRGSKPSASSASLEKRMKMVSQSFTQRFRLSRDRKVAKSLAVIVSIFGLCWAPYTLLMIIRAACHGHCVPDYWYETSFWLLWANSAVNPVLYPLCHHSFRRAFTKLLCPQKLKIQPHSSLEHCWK
Sequence of Gamma-aminobutyric acid receptor subunit alpha-1/alpha-2/beta-2/gamma-2 (P14867 whole entry): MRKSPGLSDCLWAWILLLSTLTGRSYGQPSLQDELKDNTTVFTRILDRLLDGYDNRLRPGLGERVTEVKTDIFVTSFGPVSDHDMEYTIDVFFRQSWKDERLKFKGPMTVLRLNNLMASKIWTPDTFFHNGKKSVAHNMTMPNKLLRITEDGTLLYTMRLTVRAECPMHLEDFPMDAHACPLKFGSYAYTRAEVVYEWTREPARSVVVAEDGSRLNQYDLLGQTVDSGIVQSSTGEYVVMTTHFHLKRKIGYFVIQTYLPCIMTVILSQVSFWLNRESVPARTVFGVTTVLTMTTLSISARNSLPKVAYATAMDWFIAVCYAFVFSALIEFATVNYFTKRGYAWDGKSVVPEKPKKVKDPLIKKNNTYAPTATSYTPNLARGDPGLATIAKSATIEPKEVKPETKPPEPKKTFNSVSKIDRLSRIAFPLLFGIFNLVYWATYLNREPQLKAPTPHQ
Sequence of Gamma-aminobutyric acid receptor subunit alpha-1/alpha-2/beta-2/gamma-2 (P47870 whole entry): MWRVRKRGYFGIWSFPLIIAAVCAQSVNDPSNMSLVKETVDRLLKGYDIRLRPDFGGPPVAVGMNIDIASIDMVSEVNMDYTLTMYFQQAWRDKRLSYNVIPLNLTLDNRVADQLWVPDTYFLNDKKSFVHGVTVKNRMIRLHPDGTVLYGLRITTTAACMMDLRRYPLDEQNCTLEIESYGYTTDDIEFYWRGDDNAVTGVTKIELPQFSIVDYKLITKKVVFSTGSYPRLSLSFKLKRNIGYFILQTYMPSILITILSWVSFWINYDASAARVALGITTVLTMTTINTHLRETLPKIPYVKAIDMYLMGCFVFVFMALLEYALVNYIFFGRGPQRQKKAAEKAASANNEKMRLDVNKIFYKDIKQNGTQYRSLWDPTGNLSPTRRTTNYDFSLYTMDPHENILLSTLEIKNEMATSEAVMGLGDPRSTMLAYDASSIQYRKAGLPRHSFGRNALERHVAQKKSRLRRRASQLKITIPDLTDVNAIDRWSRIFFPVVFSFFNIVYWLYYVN
Sequence of Gamma-aminobutyric acid receptor subunit alpha-1/alpha-2/beta-2/gamma-2 (P18507 whole entry): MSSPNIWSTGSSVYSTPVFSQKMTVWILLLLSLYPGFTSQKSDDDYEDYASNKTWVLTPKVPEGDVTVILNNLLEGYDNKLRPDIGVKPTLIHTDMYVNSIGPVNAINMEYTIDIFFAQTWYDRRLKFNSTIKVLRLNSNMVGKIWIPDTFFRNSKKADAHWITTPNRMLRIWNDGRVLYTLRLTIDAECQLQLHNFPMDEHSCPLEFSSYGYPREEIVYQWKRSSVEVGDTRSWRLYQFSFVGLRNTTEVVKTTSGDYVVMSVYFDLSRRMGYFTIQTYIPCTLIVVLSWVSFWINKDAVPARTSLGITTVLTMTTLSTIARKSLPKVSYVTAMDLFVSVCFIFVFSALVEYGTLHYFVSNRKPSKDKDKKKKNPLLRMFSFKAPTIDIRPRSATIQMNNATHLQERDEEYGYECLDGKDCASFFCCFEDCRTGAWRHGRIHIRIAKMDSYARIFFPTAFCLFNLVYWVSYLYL
Sequence of Gamma-aminobutyric acid receptor subunit alpha-1/alpha-2/beta-2/gamma-2 (P47869 whole entry): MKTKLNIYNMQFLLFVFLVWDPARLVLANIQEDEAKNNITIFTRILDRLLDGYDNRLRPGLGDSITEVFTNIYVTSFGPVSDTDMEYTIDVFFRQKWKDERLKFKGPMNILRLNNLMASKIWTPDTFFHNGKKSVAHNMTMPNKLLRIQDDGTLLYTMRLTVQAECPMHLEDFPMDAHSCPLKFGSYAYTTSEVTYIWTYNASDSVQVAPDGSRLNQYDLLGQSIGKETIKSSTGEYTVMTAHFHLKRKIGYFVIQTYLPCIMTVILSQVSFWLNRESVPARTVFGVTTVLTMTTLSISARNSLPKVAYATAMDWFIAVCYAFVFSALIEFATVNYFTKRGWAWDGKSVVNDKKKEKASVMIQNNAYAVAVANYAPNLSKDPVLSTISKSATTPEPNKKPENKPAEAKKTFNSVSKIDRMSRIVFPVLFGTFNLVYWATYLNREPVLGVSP
Sequence of D(1A) dopamine receptor (P21728 whole entry): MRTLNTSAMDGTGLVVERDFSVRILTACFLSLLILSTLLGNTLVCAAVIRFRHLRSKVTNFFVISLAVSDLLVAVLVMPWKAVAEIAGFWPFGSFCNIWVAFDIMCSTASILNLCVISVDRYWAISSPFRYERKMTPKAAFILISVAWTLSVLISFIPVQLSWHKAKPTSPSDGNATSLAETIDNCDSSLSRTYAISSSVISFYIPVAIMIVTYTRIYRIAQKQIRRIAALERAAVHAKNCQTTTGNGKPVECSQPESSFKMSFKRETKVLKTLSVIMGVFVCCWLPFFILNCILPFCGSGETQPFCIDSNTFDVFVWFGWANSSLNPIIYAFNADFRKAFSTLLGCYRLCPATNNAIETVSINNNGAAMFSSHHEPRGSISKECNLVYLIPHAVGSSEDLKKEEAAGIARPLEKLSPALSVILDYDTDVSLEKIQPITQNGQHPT

Compound	AC50 (Histamine H3 receptor)	AC50 (Androgen receptor)	AC50 [1]	AC50 (D(1A) dopamine receptor)	AC50 [2]	AC50 [3]	AC50 [4]	AC50 [5]	AC50 [6]
C[C@@H](O)[C@H]1C(=O)N2C(C(=O)O)=C(S[C@@H]3CN[C@H](C(=O)Nc4cccc(C(=O)O)c4)C3)[C@H](C)[C@H]12	> 30 µM	> 30 µM	> 30 µM	> 30 µM	> 30 µM	–	–	–	–
Cc1ccc2c([nH]c(=O)c3c(=O)cc(C(=O)OCCC(C)C)oc32)c1C	> 30 µM	> 30 µM	> 30 µM	> 30 µM	–	> 30 µM	> 30 µM	> 30 µM	> 10 µM
COC(=O)N[C@H](C(=O)N1CC2(CC2)C[C@H]1c1ncc(-c2ccc3c(c2)C(F)(F)c2cc(-c4ccc5nc([C@@H]6[C@H]7CC[C@H](C7)N6C(=O)[C@@H](NC(=O)OC)C(C)C)[nH]c5c4)ccc2-3)[nH]1)C(C)C	> 30 µM	> 10 µM	> 30 µM	> 30 µM	–	> 30 µM	> 30 µM	> 30 µM	> 30 µM
CC1(C)S[C@@H]2[C@H](NC(=O)[C@H](NC(=O)c3cnc4cccnc4c3O)c3ccccc3)C(=O)N2[C@H]1C(=O)O [APALCILLIN]	> 30 µM	> 30 µM	> 30 µM	> 30 µM	1.25 µM	> 30 µM	> 30 µM	> 30 µM	–
OCc1ccccc1 [BENZYL ALCOHOL]	> 30 µM	> 30 µM	> 30 µM	> 30 µM	–	–	> 30 µM	–	> 30 µM
CC(C)(C)NCC(O)COc1ccccc1C#N (centres undefined) [BUNITROLOL]	> 30 µM	> 30 µM	27.1 µM	> 30 µM	> 30 µM	> 30 µM	> 30 µM	> 30 µM	–
O=NN(CCCl)C(=O)NCCCl [CARMUSTINE]	> 30 µM	> 30 µM	> 30 µM	> 30 µM	> 30 µM	–	> 30 µM	–	–
CC1(C)C[C@@H]1C(=O)N/C(=C\CCCCSC[C@H](N)C(=O)O)C(=O)O [CILASTATIN]	> 30 µM	> 30 µM	> 30 µM	> 30 µM	> 30 µM	> 30 µM	> 30 µM	> 30 µM	–
COc1c(OCCCN2CCOCC2)ccc2c1N=C(NC(=O)c1cnc(N)nc1)N1CCN=C21 [COPANLISIB]	> 30 µM	> 30 µM	> 30 µM	> 30 µM	> 30 µM	> 30 µM	> 30 µM	> 30 µM	–
CCOc1ccc(Cc2nccc3cc(OCC)c(OCC)cc23)cc1OCC [ETHAVERINE]	> 30 µM	> 30 µM	20.9 µM	8.59 µM	> 30 µM	> 30 µM	> 30 µM	1.66 µM	–
CC(NCCC(c1ccccc1)c1ccccc1)c1ccccc1 (centres undefined) [FENDILINE]	> 30 µM	> 30 µM	5.89 µM	21.7 µM	–	26.7 µM	25.8 µM	–	> 10 µM
CC(C)(Oc1ccc(C(=O)c2ccc(Cl)cc2)cc1)C(=O)O [FENOFIBRIC ACID]	> 30 µM	> 30 µM	> 30 µM	> 30 µM	–	> 30 µM	> 30 µM	> 30 µM	> 30 µM
COC(=O)Nc1nc2cc(C(=O)c3ccc(F)cc3)ccc2[nH]1 [FLUBENDAZOLE]	> 30 µM	> 30 µM	> 30 µM	> 30 µM	–	–	> 30 µM	–	> 30 µM
CC(O)(CC(=O)O)CC(=O)O [MEGLUTOL]	> 30 µM	> 30 µM	> 30 µM	> 30 µM	> 30 µM	> 30 µM	> 30 µM	9.87 µM	–
Oc1ccc(OCc2ccccc2)cc1 [MONOBENZONE]	> 30 µM	> 30 µM	> 30 µM	> 30 µM	–	–	> 30 µM	–	> 30 µM
C[C@@H]1O[C@@H](O[C@H]2C[C@@H](O)[C@]3(CO)[C@H]4[C@H](O)C[C@]5(C)[C@@H](C6=CC(=O)OC6)CC[C@]5(O)[C@@H]4CC[C@]3(O)C2)[C@H](O)[C@H](O)[C@H]1O [OUABAIN]	> 30 µM	> 30 µM	> 30 µM	> 30 µM	–	–	> 30 µM	–	> 30 µM
COc1ccc(C(=O)c2ccccc2)c(O)c1 [OXYBENZONE]	> 30 µM	> 30 µM	> 30 µM	> 30 µM	> 30 µM	> 30 µM	> 30 µM	> 10 µM	–
OC(CN1CCCCC1)c1cc(-c2ccccc2)on1 (centres undefined) [PERISOXAL]	15.8 µM	> 30 µM	> 30 µM	3.82 µM	> 30 µM	–	–	–	–
CO[C@H]1/C=C/O[C@@]2(C)Oc3c(C)c(O)c4c(c3C2=O)C2=NC3(CCN(CC(C)C)CC3)NC2=C(NC(=O)/C(C)=C\C=C\[C@H](C)[C@H](O)[C@@H](C)[C@@H](O)[C@@H](C)[C@H](OC(C)=O)[C@@H]1C)C4=O [RIFABUTIN]	> 30 µM	> 30 µM	> 30 µM	> 30 µM	–	–	> 30 µM	–	> 30 µM
[H]/N=C(/N)NS(=O)(=O)c1ccc(N)cc1 [SULFAGUANIDINE]	> 30 µM	> 30 µM	> 30 µM	> 30 µM	> 30 µM	> 30 µM	> 30 µM	> 30 µM	–
CC(=O)O[C@]1(C(C)=O)CC[C@H]2[C@@H]3CCC4=CC(=O)CCC4=C3[C@@H](c3ccc(N(C)C)cc3)C[C@@]21C [ULIPRISTAL ACETATE]	> 30 µM	0.03 µM	> 30 µM	> 30 µM	> 30 µM	> 30 µM	> 30 µM	> 30 µM	–
